Experimental data: ChEMBL document CHEMBL1201862, “PubChem BioAssay data set” (2004)
Active and inactive are the calls of the source.

Legend:
[1] = biological target: Muscarinic acetylcholine receptor M3 (Homo sapiens, UniProt P20309); test: human M3 receptor positive allosteric modulation, dose response, selectivity assay for M1 PAM project, cell-based, CHO-K1 hM3, Fluo-4 calcium, ACh EC20 (AID 2428); assay type: functional
[2] = biological target: Muscarinic acetylcholine receptor M4 (Rattus norvegicus, UniProt P08485); test: rat M4 receptor positive allosteric modulation check, dose response, selectivity assay for M1 muscarinic PAM project, cell-based, CHO-K1 rat M4/Gqi5, Fluo-4 calcium, ACh EC20 (AID 2438); assay type: functional
[3] = biological target: Muscarinic acetylcholine receptor M1 (Rattus norvegicus, UniProt P08482); test: rat M1 positive allosteric modulator potency, dose response, cell-based, calcium mobilization, CHO-K1, ACh EC20 (AID 2425); assay type: functional
[4] = biological target: Peroxisome proliferator-activated receptor gamma/Nuclear receptor coactivator 2 (Homo sapiens, UniProt P37231); assay type: functional;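 further: agonist potency for raising coactivator recruitment to the receptor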
Peroxisome proliferator-activated receptor gamma/Nuclear receptor coactivator 2, sequence (P37231 whole entry): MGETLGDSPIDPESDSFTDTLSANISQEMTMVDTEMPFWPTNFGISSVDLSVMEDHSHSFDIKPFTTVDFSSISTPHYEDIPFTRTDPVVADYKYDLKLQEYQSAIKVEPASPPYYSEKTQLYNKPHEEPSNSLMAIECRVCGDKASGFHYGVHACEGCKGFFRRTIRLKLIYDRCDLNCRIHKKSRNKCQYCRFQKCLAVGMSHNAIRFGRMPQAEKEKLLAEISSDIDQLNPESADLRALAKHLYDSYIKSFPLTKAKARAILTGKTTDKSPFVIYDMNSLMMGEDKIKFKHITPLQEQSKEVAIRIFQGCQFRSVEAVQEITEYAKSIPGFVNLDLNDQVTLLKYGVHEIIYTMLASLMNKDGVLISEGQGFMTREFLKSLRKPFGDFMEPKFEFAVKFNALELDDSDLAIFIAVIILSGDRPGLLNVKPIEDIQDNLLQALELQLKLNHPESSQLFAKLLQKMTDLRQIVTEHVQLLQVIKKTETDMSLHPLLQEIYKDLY
Peroxisome proliferator-activated receptor gamma/Nuclear receptor coactivator 2, sequence (Q15596 whole entry, further chain): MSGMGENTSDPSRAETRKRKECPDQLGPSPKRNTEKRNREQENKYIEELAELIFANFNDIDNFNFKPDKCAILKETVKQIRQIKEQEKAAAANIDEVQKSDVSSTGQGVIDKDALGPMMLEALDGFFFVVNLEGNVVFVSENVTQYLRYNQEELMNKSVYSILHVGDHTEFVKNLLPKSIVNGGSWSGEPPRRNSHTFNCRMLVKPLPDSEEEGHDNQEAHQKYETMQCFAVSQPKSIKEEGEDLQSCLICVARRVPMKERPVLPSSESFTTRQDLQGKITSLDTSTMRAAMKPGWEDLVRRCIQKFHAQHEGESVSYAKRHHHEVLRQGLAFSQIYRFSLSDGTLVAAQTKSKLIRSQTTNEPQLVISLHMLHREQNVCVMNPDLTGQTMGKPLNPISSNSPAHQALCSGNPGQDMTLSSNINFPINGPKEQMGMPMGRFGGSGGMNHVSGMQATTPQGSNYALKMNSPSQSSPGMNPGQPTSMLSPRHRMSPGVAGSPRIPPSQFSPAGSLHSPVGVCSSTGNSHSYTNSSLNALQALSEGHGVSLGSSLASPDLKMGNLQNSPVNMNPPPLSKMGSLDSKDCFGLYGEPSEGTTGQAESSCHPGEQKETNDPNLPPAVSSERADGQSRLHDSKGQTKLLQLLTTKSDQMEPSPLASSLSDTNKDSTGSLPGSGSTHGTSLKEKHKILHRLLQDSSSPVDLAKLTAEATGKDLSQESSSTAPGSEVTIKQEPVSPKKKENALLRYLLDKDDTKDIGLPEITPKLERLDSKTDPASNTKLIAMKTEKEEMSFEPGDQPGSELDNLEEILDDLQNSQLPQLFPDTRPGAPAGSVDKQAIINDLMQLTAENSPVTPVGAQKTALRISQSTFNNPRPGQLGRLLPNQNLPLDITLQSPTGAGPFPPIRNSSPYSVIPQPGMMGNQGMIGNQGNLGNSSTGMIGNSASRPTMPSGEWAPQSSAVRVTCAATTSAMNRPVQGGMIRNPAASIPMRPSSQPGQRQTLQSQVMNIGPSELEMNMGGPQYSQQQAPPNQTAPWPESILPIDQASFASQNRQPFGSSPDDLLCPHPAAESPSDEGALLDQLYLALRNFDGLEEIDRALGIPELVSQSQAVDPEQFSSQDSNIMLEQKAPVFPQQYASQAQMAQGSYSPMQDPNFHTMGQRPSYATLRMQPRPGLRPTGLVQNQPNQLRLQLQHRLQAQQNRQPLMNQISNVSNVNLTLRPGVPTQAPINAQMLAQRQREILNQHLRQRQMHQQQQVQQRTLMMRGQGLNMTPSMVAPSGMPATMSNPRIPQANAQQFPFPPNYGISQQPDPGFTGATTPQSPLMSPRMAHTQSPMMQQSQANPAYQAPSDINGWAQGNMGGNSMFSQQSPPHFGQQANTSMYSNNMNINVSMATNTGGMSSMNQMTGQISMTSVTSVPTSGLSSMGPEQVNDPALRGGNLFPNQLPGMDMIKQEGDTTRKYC

[5] = biological target: Peroxisome proliferator-activated receptor gamma/Nuclear receptor coactivator 3 (Homo sapiens, UniProt P37231); assay type: functional;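 further: agonist potency for raising coactivator recruitment to the receptor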
Peroxisome proliferator-activated receptor gamma/Nuclear receptor coactivator 3, sequence (P37231 whole entry): as the sequence (P37231 whole entry) above
Peroxisome proliferator-activated receptor gamma/Nuclear receptor coactivator 3, sequence (Q9Y6Q9 whole entry, further chain): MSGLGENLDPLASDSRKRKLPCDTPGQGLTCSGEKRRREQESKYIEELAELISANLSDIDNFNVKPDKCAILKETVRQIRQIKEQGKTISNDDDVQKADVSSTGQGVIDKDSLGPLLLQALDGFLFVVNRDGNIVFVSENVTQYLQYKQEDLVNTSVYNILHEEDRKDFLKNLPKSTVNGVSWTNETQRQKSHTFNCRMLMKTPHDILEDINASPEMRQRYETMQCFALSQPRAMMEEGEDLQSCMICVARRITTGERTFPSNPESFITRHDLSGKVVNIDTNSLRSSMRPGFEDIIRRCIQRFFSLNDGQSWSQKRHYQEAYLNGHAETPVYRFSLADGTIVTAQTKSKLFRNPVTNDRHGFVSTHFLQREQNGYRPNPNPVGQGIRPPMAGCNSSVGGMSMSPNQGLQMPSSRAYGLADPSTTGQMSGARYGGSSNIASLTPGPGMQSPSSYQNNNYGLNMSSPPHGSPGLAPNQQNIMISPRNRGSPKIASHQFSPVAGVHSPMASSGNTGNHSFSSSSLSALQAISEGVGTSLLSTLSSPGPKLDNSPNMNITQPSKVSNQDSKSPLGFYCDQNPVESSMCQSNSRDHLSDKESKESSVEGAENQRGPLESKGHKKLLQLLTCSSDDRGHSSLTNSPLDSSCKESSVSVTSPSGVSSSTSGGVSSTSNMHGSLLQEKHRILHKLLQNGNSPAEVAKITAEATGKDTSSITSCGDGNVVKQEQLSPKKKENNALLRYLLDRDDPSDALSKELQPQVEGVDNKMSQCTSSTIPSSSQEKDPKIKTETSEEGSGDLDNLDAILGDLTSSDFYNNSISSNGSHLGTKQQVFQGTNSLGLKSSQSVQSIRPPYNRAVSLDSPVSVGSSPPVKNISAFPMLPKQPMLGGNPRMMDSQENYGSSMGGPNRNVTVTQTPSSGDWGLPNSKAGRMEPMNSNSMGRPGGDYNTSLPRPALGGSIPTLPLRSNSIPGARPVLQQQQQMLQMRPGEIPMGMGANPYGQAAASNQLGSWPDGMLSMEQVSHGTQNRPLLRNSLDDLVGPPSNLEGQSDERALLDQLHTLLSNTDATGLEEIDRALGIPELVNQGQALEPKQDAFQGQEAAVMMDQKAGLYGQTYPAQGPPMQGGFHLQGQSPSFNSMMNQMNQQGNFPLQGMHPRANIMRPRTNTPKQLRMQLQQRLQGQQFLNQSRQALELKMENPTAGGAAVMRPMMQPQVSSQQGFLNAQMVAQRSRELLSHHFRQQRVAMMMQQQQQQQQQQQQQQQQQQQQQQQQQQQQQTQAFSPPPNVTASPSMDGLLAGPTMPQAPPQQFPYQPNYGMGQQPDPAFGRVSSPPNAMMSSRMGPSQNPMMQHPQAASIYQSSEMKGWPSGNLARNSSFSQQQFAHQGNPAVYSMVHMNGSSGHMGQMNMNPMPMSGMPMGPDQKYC

[6] = biological target: Induced myeloid leukemia cell differentiation protein Mcl-1 (Homo sapiens, UniProt Q07820); assay type: functional
Induced myeloid leukemia cell differentiation protein Mcl-1, sequence (Q07820 whole entry): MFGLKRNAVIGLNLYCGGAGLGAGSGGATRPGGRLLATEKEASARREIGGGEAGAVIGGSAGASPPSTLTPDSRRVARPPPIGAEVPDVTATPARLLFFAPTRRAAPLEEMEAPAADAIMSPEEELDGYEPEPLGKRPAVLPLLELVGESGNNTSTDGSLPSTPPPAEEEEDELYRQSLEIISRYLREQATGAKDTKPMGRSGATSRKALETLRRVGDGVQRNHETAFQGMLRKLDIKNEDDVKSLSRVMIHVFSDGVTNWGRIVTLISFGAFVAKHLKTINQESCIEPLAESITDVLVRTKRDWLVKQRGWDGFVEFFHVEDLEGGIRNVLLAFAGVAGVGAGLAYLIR

Large T antigen = Large T antigen (Simian virus 40, UniProt P03070); assay type: functional, Betapolyomavirus macacae;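 further: Confirmatory-stage PubChem screen for compounds that inhibit SV40 T antigen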
[7] = biological target: T1, Mannose-6-phosphate isomerase (Homo sapiens, UniProt P34949); test: human PMI inhibitors, high substrate, primary screen, biochemical, fluorescence intensity, high mannose 6-phosphate (AID 1220)
T1 sequence (P34949 whole entry): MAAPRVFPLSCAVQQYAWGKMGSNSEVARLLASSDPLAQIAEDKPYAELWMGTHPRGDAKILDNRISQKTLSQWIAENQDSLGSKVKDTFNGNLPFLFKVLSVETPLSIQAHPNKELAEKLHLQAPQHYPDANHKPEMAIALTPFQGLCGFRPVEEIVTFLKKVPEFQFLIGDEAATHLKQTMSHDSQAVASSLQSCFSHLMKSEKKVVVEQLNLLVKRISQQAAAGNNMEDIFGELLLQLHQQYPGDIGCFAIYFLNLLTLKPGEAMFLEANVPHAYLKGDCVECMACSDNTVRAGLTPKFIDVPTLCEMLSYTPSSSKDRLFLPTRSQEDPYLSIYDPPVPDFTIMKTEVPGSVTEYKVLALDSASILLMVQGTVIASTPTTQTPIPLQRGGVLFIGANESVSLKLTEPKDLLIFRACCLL

[8] = biological target: Peroxisome proliferator-activated receptor gamma/Nuclear receptor coactivator 1 (Homo sapiens, UniProt P37231); assay type: functional;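 further: agonist potency as compounds enhance coactivator SRC-1 recruitment to PPARgamma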
NADPH oxidase 1 = biological target: T2, NADPH oxidase 1 (Homo sapiens, UniProt Q9Y5S8); test: Luminescence-based cell-based dose response assay to identify inhibitors of NADPH oxidase 1 (NOX1).; assay type: functional
T2 sequence (Q9Y5S8 whole entry): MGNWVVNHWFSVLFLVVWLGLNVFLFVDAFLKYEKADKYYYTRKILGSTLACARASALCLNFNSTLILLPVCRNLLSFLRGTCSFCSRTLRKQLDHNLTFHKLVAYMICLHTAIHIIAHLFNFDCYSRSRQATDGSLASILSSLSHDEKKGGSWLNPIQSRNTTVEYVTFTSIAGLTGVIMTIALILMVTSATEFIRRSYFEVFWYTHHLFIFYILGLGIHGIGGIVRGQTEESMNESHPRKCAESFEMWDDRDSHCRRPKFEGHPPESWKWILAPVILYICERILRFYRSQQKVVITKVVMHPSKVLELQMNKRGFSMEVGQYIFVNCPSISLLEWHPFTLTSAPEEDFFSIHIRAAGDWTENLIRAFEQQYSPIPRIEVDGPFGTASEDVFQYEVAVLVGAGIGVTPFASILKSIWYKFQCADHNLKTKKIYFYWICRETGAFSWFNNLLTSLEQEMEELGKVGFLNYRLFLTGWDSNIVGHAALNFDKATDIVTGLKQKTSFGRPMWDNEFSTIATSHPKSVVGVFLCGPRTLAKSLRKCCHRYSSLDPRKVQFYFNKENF

[9] = biological target: Epstein-Barr nuclear antigen 1 (Epstein-Barr virus (strain B95-8) (HHV-4) (Human herpesvirus 4), UniProt P03211); test: EBNA-1 inhibitors, dose response, biochemical, fluorescence polarization, 1536-well (AID 2381); parameters: species or system human gammaherpesvirus 4;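 further: fluorescence polarization of a Cy5 DNA probe bound by EBNA-1 protein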
[10] = biological target: Lytic switch protein BZLF1 (Epstein-Barr virus (strain B95-8) (HHV-4) (Human herpesvirus 4), UniProt P03206); test: EBV ZTA inhibitors, dose response, counter-screen for EBNA-1 inhibitor project, biochemical, fluorescence polarization, Epstein-Barr virus, 1536-well (AID 2377); parameters: species or system human gammaherpesvirus 4;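 further: fluorescence polarization of Cy5-labelled ZRE DNA probe bound by purified Zta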
Estrogen receptor = Estrogen receptor (Homo sapiens, UniProt P03372); test: potentiators of ERα–SRC-1 coactivator binding, dose response, biochemical, TR-FRET, ERα LBD (AID 737)
[11] = biological target: T3, RNA-binding protein pos-1 (Caenorhabditis elegans, UniProt G5EF15); test: inhibitors of POS-1/mex-3 RNA binding, dose response, biochemical, fluorescence polarization (AID 1964);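 further: purified POS-1 fused to maltose binding protein made in E. coli; potency of compounds blocking POS-1 binding to fluorescent RNA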
T3 sequence (G5EF15 whole entry): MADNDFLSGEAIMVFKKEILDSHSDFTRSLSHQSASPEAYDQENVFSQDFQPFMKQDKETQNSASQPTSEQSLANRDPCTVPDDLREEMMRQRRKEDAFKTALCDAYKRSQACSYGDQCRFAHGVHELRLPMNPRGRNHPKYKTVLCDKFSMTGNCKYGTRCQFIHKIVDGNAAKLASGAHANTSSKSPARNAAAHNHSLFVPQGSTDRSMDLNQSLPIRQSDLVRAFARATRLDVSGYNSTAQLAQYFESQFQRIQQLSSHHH

[12] = biological target: T4, Replicative DNA helicase DnaB (Mycobacterium tuberculosis, UniProt P9WMR3); test: DnaB intein splicing inhibitors, dose response, biochemical, cell-free fluorescence (AID 449749); assay type: functional
T4 sequence (P9WMR3 whole entry): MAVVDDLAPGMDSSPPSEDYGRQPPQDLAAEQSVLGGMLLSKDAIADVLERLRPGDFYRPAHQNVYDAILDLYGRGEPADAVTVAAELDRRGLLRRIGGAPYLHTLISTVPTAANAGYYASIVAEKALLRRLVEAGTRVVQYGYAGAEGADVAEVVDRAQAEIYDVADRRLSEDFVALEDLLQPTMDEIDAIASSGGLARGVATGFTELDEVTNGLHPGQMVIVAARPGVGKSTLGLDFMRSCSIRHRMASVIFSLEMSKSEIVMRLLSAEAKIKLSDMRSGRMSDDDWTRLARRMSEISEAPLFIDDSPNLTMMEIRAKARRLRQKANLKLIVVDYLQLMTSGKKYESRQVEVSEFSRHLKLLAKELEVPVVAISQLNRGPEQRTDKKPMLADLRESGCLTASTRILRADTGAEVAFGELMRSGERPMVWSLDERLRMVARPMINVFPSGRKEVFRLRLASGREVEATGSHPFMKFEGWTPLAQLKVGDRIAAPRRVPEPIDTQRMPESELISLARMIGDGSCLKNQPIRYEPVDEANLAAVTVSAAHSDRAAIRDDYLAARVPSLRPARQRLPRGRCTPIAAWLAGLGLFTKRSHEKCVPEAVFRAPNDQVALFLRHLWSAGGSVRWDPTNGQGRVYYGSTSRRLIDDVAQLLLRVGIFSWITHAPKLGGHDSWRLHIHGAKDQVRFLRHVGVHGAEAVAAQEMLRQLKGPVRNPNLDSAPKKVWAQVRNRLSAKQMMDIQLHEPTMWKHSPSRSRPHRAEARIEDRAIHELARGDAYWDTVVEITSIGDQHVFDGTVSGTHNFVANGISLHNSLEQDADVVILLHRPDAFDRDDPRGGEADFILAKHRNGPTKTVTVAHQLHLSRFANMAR

Protein RecA = biological target: T5, Protein RecA (Mycobacterium tuberculosis, UniProt P9WHJ3); test: Fluorescence Cell-Free Homogeneous Dose Retest to Identify Inhibitors of RecA-Intein Splicing Activity. [Related pubchem assays (depositor defined):AID2097, AID2223, AID489010, AID492950]; assay type: functional
T5 sequence (P9WHJ3 whole entry): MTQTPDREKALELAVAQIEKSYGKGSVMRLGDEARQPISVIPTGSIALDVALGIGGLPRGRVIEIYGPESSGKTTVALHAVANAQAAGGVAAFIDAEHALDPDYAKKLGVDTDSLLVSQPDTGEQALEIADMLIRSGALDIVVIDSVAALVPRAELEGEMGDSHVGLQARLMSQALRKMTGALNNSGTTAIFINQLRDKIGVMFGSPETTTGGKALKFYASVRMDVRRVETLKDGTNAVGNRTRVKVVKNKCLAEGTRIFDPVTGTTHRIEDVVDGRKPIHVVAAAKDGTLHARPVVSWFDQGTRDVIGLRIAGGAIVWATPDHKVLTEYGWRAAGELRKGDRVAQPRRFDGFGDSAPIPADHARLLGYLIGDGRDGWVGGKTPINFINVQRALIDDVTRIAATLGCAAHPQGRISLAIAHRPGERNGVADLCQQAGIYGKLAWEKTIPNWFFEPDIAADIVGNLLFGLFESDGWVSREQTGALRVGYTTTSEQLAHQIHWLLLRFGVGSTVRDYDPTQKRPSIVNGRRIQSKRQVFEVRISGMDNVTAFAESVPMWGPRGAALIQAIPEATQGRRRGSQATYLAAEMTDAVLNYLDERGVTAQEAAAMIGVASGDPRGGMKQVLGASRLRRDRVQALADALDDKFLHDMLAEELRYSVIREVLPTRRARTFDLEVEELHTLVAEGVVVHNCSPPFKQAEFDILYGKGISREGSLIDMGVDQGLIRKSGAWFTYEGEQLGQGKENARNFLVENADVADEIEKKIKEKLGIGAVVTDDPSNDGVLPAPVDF

[13] = biological target: T6, Zinc finger protein mex-5 (Caenorhabditis elegans, UniProt Q9XUB2); test: MEX-5/TCR-2 RNA interaction inhibitors, dose response, biochemical, C. elegans, fluorescence polarization (AID 1960)
T6 sequence (Q9XUB2 whole entry): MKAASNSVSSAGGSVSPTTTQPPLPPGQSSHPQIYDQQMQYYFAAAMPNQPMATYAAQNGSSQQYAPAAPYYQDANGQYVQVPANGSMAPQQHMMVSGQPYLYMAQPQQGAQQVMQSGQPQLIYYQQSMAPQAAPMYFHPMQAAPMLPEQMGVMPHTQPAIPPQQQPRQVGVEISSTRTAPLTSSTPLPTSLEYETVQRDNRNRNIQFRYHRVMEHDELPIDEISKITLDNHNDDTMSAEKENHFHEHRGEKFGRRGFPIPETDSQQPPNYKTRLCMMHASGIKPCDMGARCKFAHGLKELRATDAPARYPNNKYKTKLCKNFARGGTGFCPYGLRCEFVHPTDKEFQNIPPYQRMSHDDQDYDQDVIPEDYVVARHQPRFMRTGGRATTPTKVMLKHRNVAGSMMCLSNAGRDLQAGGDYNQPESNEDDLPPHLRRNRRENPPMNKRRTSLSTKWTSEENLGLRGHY

[14] = inhibitors of Bluetongue virus cytopathic effect, confirmation, arbovirus, BSR cells (AID 1250); assay type: functional;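 further: protection from viral cytopathic effect measured as cell viability by ATP luminescence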
[15] = biological target: T7, Neuropeptide Y receptor type 1 (Homo sapiens, UniProt P25929); assay type: functional;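 further: HEK293 cells with a CNG channel challenged with NPY then isoproterenol; potency as antagonist that reverses NPY suppression of cAMP signal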
T7 sequence (P25929 whole entry): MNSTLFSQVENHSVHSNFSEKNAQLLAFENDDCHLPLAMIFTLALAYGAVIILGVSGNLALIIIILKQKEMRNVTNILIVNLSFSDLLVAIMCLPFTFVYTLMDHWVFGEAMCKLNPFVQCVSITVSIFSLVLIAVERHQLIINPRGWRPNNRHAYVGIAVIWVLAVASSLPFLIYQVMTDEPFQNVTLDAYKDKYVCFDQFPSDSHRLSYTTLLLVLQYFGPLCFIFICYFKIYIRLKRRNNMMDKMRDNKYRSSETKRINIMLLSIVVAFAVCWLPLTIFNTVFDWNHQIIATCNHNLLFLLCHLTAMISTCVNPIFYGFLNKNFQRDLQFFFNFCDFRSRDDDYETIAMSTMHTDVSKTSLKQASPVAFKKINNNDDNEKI

[16] = biological target: T8, Neuropeptide Y receptor type 2 (Homo sapiens, UniProt P49146); assay type: functional, cell-based;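 further: HEK293 cells expressing the receptor and a CNG channel; stimulus was NPY near EC95 followed by isoproterenol to raise cAMP; antagonist potency measured as restoring cAMP signal that NPY suppresses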
T8 sequence (P49146 whole entry): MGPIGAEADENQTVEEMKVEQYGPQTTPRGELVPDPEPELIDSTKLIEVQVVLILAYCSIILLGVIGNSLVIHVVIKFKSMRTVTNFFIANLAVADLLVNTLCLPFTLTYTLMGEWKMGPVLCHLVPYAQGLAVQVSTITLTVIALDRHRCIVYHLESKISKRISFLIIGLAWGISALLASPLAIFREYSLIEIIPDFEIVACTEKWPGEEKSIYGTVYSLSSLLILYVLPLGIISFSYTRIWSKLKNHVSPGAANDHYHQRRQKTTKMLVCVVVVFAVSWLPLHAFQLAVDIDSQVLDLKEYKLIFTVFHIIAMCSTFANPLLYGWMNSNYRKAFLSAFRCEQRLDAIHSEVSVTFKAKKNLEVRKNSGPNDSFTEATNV

Muscarinic acetylcholine receptor M3, sequence (P20309 whole entry): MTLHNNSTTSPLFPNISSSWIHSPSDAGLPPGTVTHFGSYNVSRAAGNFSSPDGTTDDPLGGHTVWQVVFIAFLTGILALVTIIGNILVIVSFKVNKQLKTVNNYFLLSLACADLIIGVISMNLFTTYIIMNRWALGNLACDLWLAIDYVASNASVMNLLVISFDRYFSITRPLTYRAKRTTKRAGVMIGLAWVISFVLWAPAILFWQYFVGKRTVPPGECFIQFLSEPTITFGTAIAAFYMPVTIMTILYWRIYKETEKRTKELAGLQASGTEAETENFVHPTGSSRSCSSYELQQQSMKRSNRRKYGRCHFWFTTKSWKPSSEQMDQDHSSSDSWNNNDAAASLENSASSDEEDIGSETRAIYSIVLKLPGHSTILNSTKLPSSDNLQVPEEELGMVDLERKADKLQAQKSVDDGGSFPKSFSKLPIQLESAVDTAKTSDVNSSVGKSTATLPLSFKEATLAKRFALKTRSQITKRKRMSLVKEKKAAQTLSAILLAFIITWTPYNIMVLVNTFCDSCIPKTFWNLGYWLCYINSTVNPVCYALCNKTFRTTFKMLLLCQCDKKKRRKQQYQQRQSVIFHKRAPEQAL

For `Cn1cc(-c2ccc(CN3C(=O)C(=O)c4ccccc43)cc2)cn1`, the EC50 [1] was 2.71 µM (active), the EC50 [2] was 2.71 µM (active) and the EC50 [3] was 2.42 µM (active).
For `COc1ccc(N2CCC(CNC(=O)Nc3ccccc3)C2)cc1` (stereo unspecified), the EC50 [4] was > 79.4 µM (not active), the EC50 [5] was > 79.4 µM (not active) and the IC50 [6] was 2.58 µM (active). For the same compound, the IC50 (Large T antigen) was 10.6 µM (active), the IC50 [7] was > 50 µM (not active) and the EC50 [8] was > 79.4 µM (not active).
For `CCN(CC)c1ccc(NC(=O)Nc2ccc(C(C)=O)cc2)cc1`, the IC50 [6] was 4.48 µM (not active) and the IC50 (NADPH oxidase 1) was 0.252 µM (active).
In the case of `CC(=O)Nc1ccc(S(=O)(=O)N2CCN(Cc3nc(O)c4c(C)c(C)sc4n3)CC2)cc1`, the IC50 [9] is reported as > 148 µM (not active) and the IC50 [10] is reported as > 111 µM (not active).
With `Cc1ccc(CN(Cc2cc3cc(C)ccc3[nH]c2=O)C(=O)N2CCOCC2)cc1` the EC50 (Estrogen receptor) was 12.6 µM (not active).
In the case of `O=C1NC(=O)N(Cc2ccc(F)cc2)C(=O)/C1=C/NNC(=O)c1ccccc1O`, the EC50 [11] is reported as 10.1 µM (active), the AC50 [12] is reported as 6.55 µM (active) and the EC50 (Protein RecA) is reported as 21.9 µM (active). For the same compound, the EC50 [13] was 9.33 µM (active) and the IC50 [14] was > 100 µM (active).
For `CCCCC(=O)N/N=C/c1ccc(N2CCOCC2)c([N+](=O)[O-])c1`, the IC50 [15] was 26.7 µM (not active) and the IC50 [16] was 16.3 µM (not active).
